Experimental data published in US20120059053A1, “COMPOUNDS OF 2,3-DIHYDRO-BENZOFURAN” (FERRER INTERNATIONAL, S.A., priority 2007, published 2012).

How the values were obtained:
[1] = Levels in rat plasma after po administration; format: in vivo; conditions: 15 min after po administration of 1 mg/Kg
Brain/plasma ratio = conditions: in vivo
[2] = Metabolic stability by disappearance of compound on incubation in human microsomes; conditions: 120 min, 1 μM

Row | Structure (SMILES) | concentration at 15 min [1] | brain/plasma ratio (Brain/plasma ratio) | metabolic stability [2]
1 | CCC(=O)NCC[C@@H]1CCc2ccc(OC)cc21 [(1S)-N-[2-(6-methoxy-indan-1-yl)-ethyl]-propionamide] | 10.1 ng/mL | zero | less than 30%
2 | COc1ccc2c(c1)C(CCNC(C)=O)CO2 (stereo not shown) [Example 1, N-[2-(5-methoxy-2,3-dihydro-benzofuran-3-yl)-ethyl]-acetamide] | 98 ng/mL |  | 
